The test system of one assay is MDA-MB-231. The assay is described as follows: MTT cell viability, MDA-MB-231. Type of assay: cell-based, Human. The settings on record: Homo sapiens, MDA-MB-231; MTT test; 72 h of treatment (Figure 3); read-out: IC50 Value ± SD, MDA-MB-231. The protocol:
(§1) These cell lines were selected to represent distinct sub-types of breast cancer for extensive investigation. […] The medium was added with 10% heat-inactivated fetal calf serum (FCS) to supply vital growth hormones and nutrients necessary for cell proliferation. Additionally, 1% penicillin streptomycin was administered to avoid bacterial contamination, ensuring the sterility and integrity of the cell cultures. The cell cultures were maintained at 37 °C in a humidified environment containing 5% CO2. This controlled environment mimics physiological conditions in the human body, supporting optimal cell development and function. The humidified atmosphere prevents medium evaporation, while the 5% CO2 concentration maintains optimal pH values in the culture medium. These specialized circumstances and methods ensure that the breast cancer cell lines remain healthy and viable for experimental procedures, delivering dependable and reproducible results for research projects. The standard protocols followed for cultivating these cells are crucial for generating consistent and reliable data. Using well-characterized cell lines from a credible source like ATCC ensures the re-liability and comparability of the experimental outcomes.
(§2) This approach determines cell viability based on the ability of living cells to decrease MTT to a purple, water-insoluble formazan product. Cells were planted in 96-well plates at a density of 1 × 10^4 cells per well in 100 μL of complete culture media, which provides all necessary nutrients for cell growth. […] The cells were then treated with the compounds for 24, 48, and 72 h to determine the effect on cell viability over varied time intervals. Following each incubation time, 20 μL of MTT solution (at a concentration of 5 mg/mL in PBS) were applied to each well. The plates were further incubated for 4 h at 37 °C, during which time live cells decrease the MTT to formazan, creating purple crystals. At the end of the incubation, the medium containing the MTT was carefully aspirated, leaving only the formazan crystals in the bottom of the wells. […]
(In general: Tetrazolium assays rely on reduction of a dye to a coloured formazan, in cell work by metabolically active cells.)

Another assay concerns MDA-MB-436. The experiment in a line: MTT cell viability, MDA-MB-436. Type of assay: cell-based, Human. The settings on record: Homo sapiens, MDA-MB-436; MTT test; 72 h of treatment (Figure 3); read-out: IC50 Value ± SD, MDA-MB-436. The protocol:
as §1, §2

SMILES strings stand for the structures. Converted amounts (≈) assume the structure as drawn.

The term IC50 denotes the midpoint of a concentration-inhibition curve. As for `Cc1ccc(C(C)C)c(O)c1` [Thymol, 2-isopropyl-5-methylphenol], the IC50 is 8.22 ± 0.94 µg/mL (≈ 54.7 µM) in the assay on MDA-MB-231 and 15.8 ± 1.69 µg/mL (≈ 105 µM) with MDA-MB-436.

For the origin of these results see article PMC11355195 (Life, 2024).
